Source: PMC6503114, “Application of Antimicrobial Peptides of the Innate Immune System in Combination With Conventional Antibiotics—A Novel Way to Combat Antibiotic Resistance?” (Frontiers in Cellular and Infection Microbiology, 2019)
Converted amounts (≈) assume the structure as drawn. Where two headings read alike, the source gives them in different places. Where no end group is shown, it is not given here.

Columns and labels:
[1] = tested on: M. luteus CIP A270; assay: microbe, parasite or virus in culture; type: cell-based, Micrococcus luteus
Experimental: Prior to the “checkerboard” synergy test the minimal inhibitory concentrations (MIC) of individual substances were determined using broth microdilution assay. Testing was performed in 60-well polystyrene Terasaki microplates with V-shaped bottom generally according to the guidelines of the European Committee for Antimicrobial Susceptibility Testing with subtle modifications designed for AMP testing (Tossi et al., [1997]; Wiegand et al., [2008]). Cultivation of bacteria was carried out in 2.1% Müller-Hinton broth at 37°C with shaking. Two-fold serial dilutions of peptides, antibiotics and other antimicrobials were made with 10 mM sodium phosphate buffer, pH 7.4, containing 0.1% of BSA. The plates were preliminary incubated with 0.1% BSA for 1 h at 37°C to reduce a non-specific binding of peptides to the plates. After that BSA was removed, and serial dilutions were added into the plate wells in triplicates followed by the same volume of the suspension of bacterial cells in logarithmic phase of growth in concentration of 1 × 10^6 CFU/ml. After the 18 h overnight incubation at 37°C, the MIC value for each compound was determined as its lowest concentration completely inhibiting the visible growth of bacteria. The final results were calculated as median values based on 3–6 independent experiments.

[2] = tested on: Human neutrophils
Experimental: The pellet formed under the Ficoll-400 layer after separation contained both neutrophils and erythrocytes. It was also transferred into a separate tube, where the red blood cells were lysed with 0.83% ammonium chloride solution, which was added in a ratio of 1:4. After the thorough mixing, the suspension was incubated for 10 min at room temperature, and then centrifuged for 10 min at 300 g and 4°C. The resulting precipitate containing neutrophils was washed twice with the sterile PBS.
(§1) We calculated Fractional Effective Concentration Index (FECI), which could be seen as a particular case of the interaction index (I) proposed by Berenbaum ([1977]) or of the similar combination index (CI) proposed by Chou and Talalay ([1983]), according to the equation below: […]
(§2) Here, [MEC A] and [MEC B] are the minimum effective concentrations (MEC) of substances A and B, when they are used alone. […] [A] and [B] are respective concentrations of substances A and B in their combination, where the same statistically significant difference is detected. A non-parametric Mann-Whitney U-test (p < 0.05 or p < 0.01) was used for the mentioned statistical comparison.
(§3) We have chosen the same intervals as that of FICI to determine synergy, additivity, independent action, and antagonism based on the minimal FECI values. However, in case of cytotoxic or hemolytic effect we were interested mainly in testing the possibility of additive or synergistic interaction itself, and not in assessing the exact magnitude of such interaction. Thus, in contrast to the “checkerboard titration” method used for combined antimicrobial activity investigation, studying the combined cytotoxic effect, we considered only two combinations of concentrations for the substances A and B in the mixture: • (½ MEC A + ½ MEC B), which, if found effective, provides the FECI value of 1 (the threshold value for additivity); • (¼ MEC A + ¼ MEC B), which, if found effective, provides the FECI value of 0.5 (the threshold value for synergetic interaction).
(§4) When action on tumor cells was tested in combination with antitumor antibiotic the lower concentrations up to ( 1/16 MEC A + 1/16 MEC B) as in checkerboard titration were additionally examined to assess the magnitude of synergistic effect more precisely. The final conclusion was made based on the three independent experiments.
(§5) Standard MTT-test (Mosmann, [1983]) was used for the examination of the cytotoxic activity of antimicrobial compounds and their combinations toward varied eukaryotic cells. Briefly, cell suspensions in RPMI-1640 prepared as described in Eukaryotic Cells were dispensed into the 96-well microplates (2 × 10^5 cells/well). Then, serial dilutions of AMPs, or other antibiotic compounds, or their mixtures in RPMI-1640 were added. In positive controls (100% cell survival) the according volume of RPMI-1640 without test substances was added instead. The final volume in each well was 100 μl. Negative controls (0% cell survival) were made with 100 μl of the sterile RPMI-1640. The plates were incubated at 37°C under 5% CO2 for 24 h. Four hours before the end of incubation, 10 μl of metabolic marker MTT−3-(4,5-dimethylthiazol-2-yl)-2,5-diphenyltetrazolium bromide (5 mg/ml, diluted in PBS) was added to each well. Incubation was stopped by adding 90 μl of isopropanol containing 0.04 M HCl. Content of the wells was thoroughly mixed, so that the formazan crystals, formed in case of the reduction of MTT in presence of actively metabolizing cells, were fully dissolved. The optical density of the samples was evaluated at 540 nm, subtracting the background absorbance at 690 nm, by SpectraMax 250 Spectrophotometer (Molecular Devices, USA). The experiments were repeated at least three times. In each experiment test samples were made in triplicates and control samples were made in hexaplicates.

[3] = tested on: Murine peritoneal macrophages; assay: MTT-test
Experimental: (§6) Before the cells extraction, mice were sacrificed by cervical dislocation in accordance with the supplement to the Directive 86/609/EEC and its update Directive 2010/63/EU addressing the recommendations for euthanasia of experimental animals (Close et al., [1996]). To obtain peritoneal macrophages, healthy mice were used. The abdominal cavity of each animal was washed with 3 ml of sterile PBS using a Pasteur pipette. The culture of EAC cells was kindly provided by Dr. E.P. Kiseleva (Immunology Department of the Institute of Experimental Medicine, Saint Petersburg, Russia). On the tenth day after the intraperitoneal tumor inoculation, 0.5–1.5 ml of ascitic fluid containing EAC cells was obtained from the abdominal cavity of the animals. Murine cells (normal or tumor) were washed twice with 10 ml of sterile PBS and resuspended in RPMI-1640 medium as described above for human neutrophils and PBMC.
as §1, §2, §3, §4
as §5, with “dissolved.” for “dissolved. The optical density of the samples was evaluated at 540 nm, subtracting the background absorbance at 690 nm, by SpectraMax 250 Spectrophotometer (Molecular Devices, USA). The experiments were repeated at least three times. In each experiment test samples were made in triplicates and control samples were made in hexaplicates.”

[4] = tested on: K562; conditions: K562 tumor cells (doxorubicin-sensitive); MTT, 24 h
Experimental: The human erythromyeloid leukemia cell line K562 was obtained from the collection of the Institute of Cytology RAS (Saint Petersburg, Russia) and cultured in RPMI-1640 medium containing gentamicin (100 μg/ml) and 10% of fetal bovine serum at 37°C, 5% CO2. […] Drug resistance was maintained by monthly selection with the antibiotic (2 μg/ml in the culturing medium). Doxorubicin was removed from the medium 3 days prior to beginning any experiments. Before the testing K562 cells were washed twice with PBS and resuspended in RPMI-1640 in the same way as the other cell types.
as §1, §2, §3, §4
as §5, with “dissolved.” for “dissolved. The optical density of the samples was evaluated at 540 nm, subtracting the background absorbance at 690 nm, by SpectraMax 250 Spectrophotometer (Molecular Devices, USA). The experiments were repeated at least three times. In each experiment test samples were made in triplicates and control samples were made in hexaplicates.”

[5] = tested on: Murine EAC; assay: MTT-test; type: cell-based, mice; conditions: Murine EAC tumor cells, 24 h
Experimental: as §6, §1, §2, §3, §4
as §5, with “dissolved.” for “dissolved. The optical density of the samples was evaluated at 540 nm, subtracting the background absorbance at 690 nm, by SpectraMax 250 Spectrophotometer (Molecular Devices, USA). The experiments were repeated at least three times. In each experiment test samples were made in triplicates and control samples were made in hexaplicates.”

[6] = Micrococcus luteus, CIPA270, median of 3–6 experiments
[7] = Human neutrophils, normal cells, MTT, 24 h
[8] = Murine peritoneal macrophages, normal cells, MTT, 24 h

Compound | MIC [1, 6] [µM] | MEC of cytotoxic action ([2]; human, 24 h) | MEC of cytotoxic action ([3]; mouse, 24 h) | MEC of cytotoxic action [4] | MEC of cytotoxic action [5] | MIC ([1]; median of 3–6 experiments) [µM] | MEC of cytotoxic action [2] | MEC of cytotoxic action [3] | MEC of cytotoxic action [2, 7] | MEC of cytotoxic action [3, 8]
CO[C@H]1/C=C/O[C@@]2(C)Oc3c(C)c(O)c4c(O)c(c(/C=N/N5CCN(C)CC5)c(O)c4c3C2=O)NC(=O)/C(C)=C\C=C\[C@H](C)[C@H](O)[C@@H](C)[C@@H](O)[C@@H](C)[C@H](OC(C)=O)[C@@H]1C [Rifampicin] | 0.003 (≈ 0.00247 µg/mL) | 20 µM | >20 [40] μM | >20 [40] μM | >20 [40] μM | – | – | – | – | –
Lysozyme: egg white lysozyme, antimicrobial protein, from BioChemica | – | – | – | >50 [100] μM | 50 µM | 0.08 | >50 [100] μM | >50 [100] μM | – | –
CC1COc2c(N3CCN(C)CC3)c(F)cc3c(=O)c(C(=O)O)cn1c23 (centres unmarked) [Ofloxacin] | 5 (≈ 1.81 µg/mL) | >50 [100] μM | >50 [100] μM | >50 [100] μM | >50 [100] μM | – | – | – | – | –
RFRLPFRRPPIRIHPPPFYPPFRRFL-NH2 (C-terminus assumed) [ChBac3.4] | – | – | – | 20 µM | 5.0 µM | – | >20 [40] μM | >20 [40] μM | – | –
CC[C@H](C)[C@H](NC(=O)[C@H](CCCCN)NC(=O)[C@H](CCC(=O)O)NC(=O)[C@H](CCCCN)NC(=O)[C@H](CO)NC(=O)[C@H](CCCCN)NC(=O)[C@H](CCCNC(=N)N)NC(=O)[C@H](Cc1ccccc1)NC(=O)[C@H](Cc1ccccc1)NC(=O)[C@H](CC(=O)O)NC(=O)CNC(=O)[C@H](CC(C)C)NC(=O)[C@@H](N)CC(C)C)C(=O)NCC(=O)N[C@@H](CCCCN)C(=O)N[C@@H](CCC(=O)O)C(=O)N[C@@H](Cc1ccccc1)C(=O)N[C@@H](CCCCN)C(=O)N[C@@H](CCCNC(=N)N)C(=O)N[C@H](C(=O)N[C@H](C(=O)N[C@@H](CCC(N)=O)C(=O)N[C@@H](CCCNC(=N)N)C(=O)N[C@H](C(=O)N[C@@H](CCCCN)C(=O)N[C@@H](CC(=O)O)C(=O)N[C@@H](Cc1ccccc1)C(=O)N[C@@H](CC(C)C)C(=O)N[C@@H](CCCNC(=N)N)C(=O)N[C@@H](CC(N)=O)C(=O)N[C@@H](CC(C)C)C(=O)N[C@H](C(=O)N1CCC[C@H]1C(=O)N[C@@H](CCCNC(=N)N)C(=O)N[C@H](C(=O)N[C@@H](CCC(=O)O)C(=O)N[C@@H](CO)C(=O)O)[C@@H](C)O)C(C)C)[C@@H](C)CC)C(C)C)[C@@H](C)CC [LL-37] | – | – | – | 5.0 µM | 10 µM | – | – | – | 10 µM | >20 [40] μM
CNC(C)C1CCC(N)C(OC2C(N)CC(N)C(OC3OCC(C)(O)C(NC)C3O)C2O)O1 (centres unmarked) [Gentamicin] | 0.16 (≈ 0.0764 µg/mL) | 50 µM | >50 [100] μM | 50 µM | >50 [100] μM | – | – | – | – | –
Polymyxin B | – | – | – | 25 µM | 50 µM | 0.6 | – | – | >50 [100] μM | 50 µM
Cc1onc(-c2ccccc2)c1C(=O)N[C@@H]1C(=O)N2[C@@H]1SC(C)(C)[C@@H]2C(=O)O [Oxacillin] | 3.1 (≈ 1.24 µg/mL) | >50 [100] μM | >50 [100] μM | >50 [100] μM | >50 [100] μM | – | – | – | – | –
